Results taken from BindingDB's records for doi:10.1016/j.bmcl.2010.11.050 (The University of Tokushima Graduate School, 2010).

Target: Carbonic anhydrase 2 (Bos taurus, UniProt P00921)
Assay: Binding affinity to bovine carbonic anhydrase 2

Carbonic anhydrase 2, sequence (P00921 whole entry): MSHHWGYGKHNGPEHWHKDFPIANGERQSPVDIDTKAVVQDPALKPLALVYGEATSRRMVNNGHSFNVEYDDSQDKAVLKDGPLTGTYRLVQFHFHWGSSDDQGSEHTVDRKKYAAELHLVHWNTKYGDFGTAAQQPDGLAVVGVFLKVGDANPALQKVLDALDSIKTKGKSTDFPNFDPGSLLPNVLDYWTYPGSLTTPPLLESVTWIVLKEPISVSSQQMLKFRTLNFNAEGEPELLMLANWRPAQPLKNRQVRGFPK

Row | Structure (SMILES) | Ki
1 | Cc1ccc(S(N)(=O)=O)cc1 | 58 nM
2 | NS(=O)(=O)c1ccc([N+](=O)[O-])c(C(F)(F)F)c1 | 1.7 nM
3 | NS(=O)(=O)c1ccc(Cl)c(Cl)c1 [3,4-Dichloro-Benzenesulfonamide] | 2.5 nM
4 | NS(=O)(=O)c1cccc(Cl)c1 [3-Chloro-Benzenesulfonamide] | 16 nM
5 | Cc1cccc(S(N)(=O)=O)c1 [3-Methylbenzenesulfonamide] | 132 nM
6 | NS(=O)(=O)c1cccc([N+](=O)[O-])c1 [3-Nitro-benzenesulfonamide] | 8.5 nM
7 | CC(=O)c1ccc(S(N)(=O)=O)cc1 [4-Acetyl-Benzenesulfonamide] | 17 nM
8 | NS(=O)(=O)c1ccc(Cl)c([N+](=O)[O-])c1 [4-Chloro-3-nitro-benzenesulfonamide] | 2 nM
9 | N#Cc1ccc(S(N)(=O)=O)cc1 [4-Cyano-Benzenesulfonamide] | 7.1 nM
10 | COc1ccc(S(N)(=O)=O)cc1 [4-Methoxy-Benzenesulfonamide] | 102 nM
11 | CNc1ccc(S(N)(=O)=O)cc1 [4-Methylamino-benzenesulfonamide] | 288 nM
12 | NS(=O)(=O)c1ccc(Cl)cc1 [p-Halide-sulfanilamide derivative, 2] | 14 nM
13 | NS(=O)(=O)c1ccc(Br)cc1 [p-Halide-sulfanilamide derivative, 2a] | 14 nM
